Test system: cellular gene expression in HeLa rtTA HIV∆Mls cells

SMILES: Cc1cc(NCc2cccnc2)n2ncc(-c3ccc(Cl)cc3)c2n1 [Compound 791, 3-(4-chlorophenyl)-5-methyl-N-(3-pyridinylmethyl)pyrazolo[1,5-a]pyrimidin-7-amine]
- DCAF6 expression fold change: 0.581
- DCAF17 Mean fold change: 1.433
- DCI expression fold change: 1.321
- DCLRE1A expression fold change: 1.408
- DCXR expression fold change: 1.050
- DDB2 expression fold change: 1.399
- DDR1 expression fold change: 0.690
- DDX10 expression fold change: 1.177
- DDX31 Mean fold change: 1.434
- DDX50 expression fold change: 1.253
- DENND4B expression fold change: 1.243
- DET1 expression fold change: 1.366
- DGCR2 expression fold change: 0.881
- DGKQ expression fold change: 1.343
- DHX35 expression fold change: 1.203
- DLG4 expression fold change: 1.263
- DMAP1 expression fold change: 0.891
- DNAH14 Mean fold change: 1.678
- DNAH17 Mean fold change: 1.839
- DNAJA3 Mean fold change: 1.796
- DNAJB14 expression fold change: 1.264
- DNASE2 expression fold change: 1.378
- DNMT3L expression fold change: 0.498
- DOCK1 expression fold change: 0.758
- DOCK8 expression fold change: 0.595
- DPH5 Mean fold change: 1.479
- DPM2 expression fold change: 1.136
- DPYSL2 Mean fold change: 1.729
- DSE expression fold change: 0.858
- DUS4L Mean fold change: 1.822
- DUSP1 expression fold change: 0.730
- DUSP8 expression fold change: 0.576
- DYM expression fold change: 1.260
- DYNC1I2 expression fold change: 0.857
- DYNLT1 expression fold change: 1.171
- DYRK2 expression fold change: 1.206
- EARS2 expression fold change: 1.134
- ECT2 expression fold change: 0.716
- EDA2R Mean fold change: 1.924
- EDEM1 expression fold change: 1.273
- EFCAB2 expression fold change: 1.159
- EIF1 Mean fold change: 1.516
- EIF2S2 Mean fold change: 1.734
- EIF2S3 expression fold change: 1.243
- EIF4EBP1 Mean fold change: 2.239
- ELMO2 expression fold change: 1.211
- ELP3 expression fold change: 1.135
- EMP2 expression fold change: 0.740
- ENOPH1 Mean fold change: 1.427
- EPB41L2 expression fold change: 0.862
- EPB41L4A expression fold change: 0.788
- EPB41 Mean fold change: 1.417
- EPM2AIP1 expression fold change: 1.093
- EPRS expression fold change: 1.271
- ERCC2 expression fold change: 0.790
- ERGIC1 expression fold change: 1.185
- ERICH1 expression fold change: 0.941
- ERMAP Mean fold change: 1.499
- ERRFI1 Mean fold change: 1.452
- ESAM expression fold change: 0.673
- ESCO1 expression fold change: 1.256
- ESF1 expression fold change: 1.072
- ESRRA expression fold change: 1.275
- ESYT2 expression fold change: 0.824
- ETV4 Mean fold change: 4.291
- ETV6 expression fold change: 1.253
- F2R expression fold change: 0.551
- FAIM3 expression fold change: 1.351
- FAM13B expression fold change: 0.771
- FAM27E2 Mean fold change: 2.360
- FAM83D expression fold change: 0.622
- FAM83G expression fold change: 1.328
- FAM86A Mean fold change: 1.567
- FAM86B1 Mean fold change: 2.493
- FAM86B2 Mean fold change: 2.843
- FAM86C Mean fold change: 1.599
- FAM102A expression fold change: 1.402
- FAM107B expression fold change: 1.234
- FAM114A1 expression fold change: 0.853
- FAM119B expression fold change: 1.218
- FAM127A expression fold change: 0.756
- FAM133B expression fold change: 1.056
- FAM176B expression fold change: 1.310
- FAM179B expression fold change: 1.253
- FAM192A expression fold change: 1.096
- FAM195B expression fold change: 0.859
- FAM199X expression fold change: 1.145
- FAR1 expression fold change: 1.245
- FARP1 expression fold change: 0.824
- FASTKD2 expression fold change: 1.173
- FBXL2 expression fold change: 0.756
- FBXO22 expression fold change: 1.399
- FBXO28 expression fold change: 1.101
- FBXO45 Mean fold change: 1.434
- FBXW4 expression fold change: 1.381
- FBXW11 expression fold change: 1.080
- FDFT1 expression fold change: 0.649
- FECH expression fold change: 0.957
- FEM1C expression fold change: 1.387
- FEZ2 expression fold change: 1.355
- FGFR3 expression fold change: 0.612
- FLCN expression fold change: 1.383
- FLII expression fold change: 0.919
- FLYWCH1 expression fold change: 1.367
- FOSL2 expression fold change: 1.375
- FOXF1 expression fold change: 1.318
- FOXJ2 expression fold change: 1.277
- FOXJ3 expression fold change: 1.187
- FOXN2 expression fold change: 1.082
- FRAT1 expression fold change: 0.900
- FSTL1 expression fold change: 0.717
- FUBP1 expression fold change: 0.781
- FXYD5 expression fold change: 1.215
- FZR1 expression fold change: 0.784
- GABARAPL2 expression fold change: 0.887
- GADD45A Mean fold change: 2.491
- GALNT2 expression fold change: 0.621
- GATA5 expression fold change: 1.360
- GATSL1 expression fold change: 0.637
- GBA2 expression fold change: 1.203
- GCC1 Mean fold change: 1.971
- GDF15 Mean fold change: 7.775
- GGA3 expression fold change: 1.172
- GJD3 expression fold change: 1.295
- GLCCI1 expression fold change: 0.781
- GLI2 expression fold change: 0.589
- GNA13 expression fold change: 1.223
- GNG10 expression fold change: 0.817
- GNL1 expression fold change: 1.145
- GOLGA5 expression fold change: 1.153
- GOLGA9P Mean fold change: 1.884
- GORAB expression fold change: 1.233
- GORASP1 expression fold change: 0.859
- GOSR1 expression fold change: 1.352
- GPC5 expression fold change: 1.250
- GPCPD1 Mean fold change: 2.287
- GPD1L expression fold change: 1.252
- GPR176 expression fold change: 0.771
- GPT2 Mean fold change: 2.731
- GRAMD1C expression fold change: 1.186
- GRB10 Mean fold change: 1.714
- GRINL1A Mean fold change: 1.542
- GRPEL2 Mean fold change: 1.903
- GTF2H3 expression fold change: 1.322
- GTF3C1 expression fold change: 0.813
- H3F3A expression fold change: 0.746
- HACL1 expression fold change: 0.803
- HADHA Mean fold change: 1.441
- HADHB Mean fold change: 1.600
- HAUS3 expression fold change: 1.330
- HAUS4 expression fold change: 1.250
- HAUS6 Mean fold change: 1.910
- HAX1 Mean fold change: 1.624
- HDAC1 expression fold change: 0.825
- HDHD2 expression fold change: 1.223
- HEBP1 expression fold change: 1.199
- HECTD1 expression fold change: 1.231
- HEG1 expression fold change: 0.638
- HIF1A expression fold change: 1.219
- HINT3 expression fold change: 1.199
- HIPK1 expression fold change: 1.092
- HIST1H3B expression fold change: 0.670
- HJURP expression fold change: 0.874
- HMGB3 expression fold change: 0.753
- HMGN3 expression fold change: 0.687
- HNRNPH2 expression fold change: 0.704
- HPS3 expression fold change: 1.235
- HRSP12 expression fold change: 1.297
- HSD17B1 expression fold change: 1.238
- HSPA9 Mean fold change: 2.175
- HSPB6 Mean fold change: 2.845
- HSPB8 expression fold change: 0.812
- IBTK expression fold change: 1.153
- ICAM1 Mean fold change: 1.829
- ICK expression fold change: 0.776
- ID3 expression fold change: 0.580
- IDH2 expression fold change: 0.637
- IDI1 expression fold change: 0.495
- IFNGR1 expression fold change: 1.224
- IFRD1 Mean fold change: 2.095
- IKBIP expression fold change: 0.658
- IMMT expression fold change: 1.075
- IMPA2 Mean fold change: 1.561
- INCENP expression fold change: 0.617
- INO80C expression fold change: 0.723
- INPP1 expression fold change: 1.347
- IPO13 expression fold change: 1.247
- IQCB1 expression fold change: 1.350
- ISCU Mean fold change: 1.477
- ITGA5 expression fold change: 1.145
- ITPKC expression fold change: 1.186
- IVNS1ABP expression fold change: 1.200
- JTB expression fold change: 1.203
- JUB expression fold change: 0.585
- KANK2 expression fold change: 0.798
- KCNJ2 Mean fold change: 1.873
- KCTD1 expression fold change: 1.252
- KCTD13 expression fold change: 1.373
- KCTD15 Mean fold change: 1.965
- KCTD20 expression fold change: 1.124
- KHDRBS1 expression fold change: 0.750
- KHSRP expression fold change: 0.864
- KIAA0232 expression fold change: 1.232
- KIAA0562 expression fold change: 1.119
- KIAA0649 expression fold change: 1.279
- KIAA0753 expression fold change: 1.283
- KIAA0895 expression fold change: 1.129
- KIAA1430 expression fold change: 1.140
- KIAA1826 expression fold change: 1.191
- KIAA2013 expression fold change: 0.927
- KIF3B expression fold change: 0.839
- KIF5C expression fold change: 0.782
- KIF11 expression fold change: 0.660
- KIF18B expression fold change: 0.771
- KIF20B expression fold change: 0.622
- KIFC1 expression fold change: 0.753
- KITLG expression fold change: 0.707
- KLF9 expression fold change: 0.665
- KLF11 Mean fold change: 1.487
- KLHDC3 expression fold change: 0.728
- KLHL35 Mean fold change: 1.651
- KPNA2 expression fold change: 0.620
- KRR1 expression fold change: 1.251
- LACE1 Mean fold change: 1.553
- LAPTM4B expression fold change: 0.781
- LARP6 Mean fold change: 3.094
- LARS expression fold change: 1.394
- LASS5 expression fold change: 0.895
- LGALS9 Mean fold change: 1.949
- LGTN expression fold change: 1.255
- LHPP Mean fold change: 1.532
- LIG3 expression fold change: 1.068
- LIN7B expression fold change: 1.185
- LMO7 expression fold change: 0.663
- LONP1 Mean fold change: 2.312
- LRP5L expression fold change: 1.303
- LRPPRC expression fold change: 1.312
- LRRC8D Mean fold change: 1.472
- LRRC16A expression fold change: 0.608
- LRRC37A3 Mean fold change: 1.746
- LRRC37B Mean fold change: 1.443
- LRSAM1 expression fold change: 1.153
- LYRM2 expression fold change: 1.176
- LYSMD1 expression fold change: 1.216
- LZTR1 expression fold change: 0.877
- MAGT1 expression fold change: 0.903
- MAK16 Mean fold change: 1.459
- MAML2 expression fold change: 0.717
- MANF expression fold change: 0.731
- MAP1B Mean fold change: 3.550
- MAP3K12 expression fold change: 1.348
- MAP3K14 expression fold change: 0.532
- MAP4K4 expression fold change: 0.822
